Measured values reported in patent US9487502B2, “Chemical compounds” (Syngenta Limited, priority 2013, dated 2016).

Experiments:
Format in all cases: in vivo
Parameters in all cases: key: 5=total damage to plant; 0=no damage to plant
[1] = test system: Abutilon theophrasti; assay: Pre-emergence herbicidal activity, ABUTH; details: 1000 g/Ha, sprayed pre-emergence, evaluated after 13 days, scale 0-5
Method: (§1) Seeds of a variety of test species were sown in standard soil in pots. After cultivation for one day (pre-emergence) under controlled conditions in a glasshouse (at 24/16° C., day/night; 14 hours light; 65% humidity), the plants were sprayed with an aqueous spray solution derived from the formulation of the technical active ingredient in acetone/water (50:50) solution containing 0.5% Tween 20 (polyoxyethelyene sorbitan monolaurate, CAS RN 9005-64-5). The test plants were then grown in a glasshouse under controlled conditions (at 24/16° C., day/night; 14 hours light; 65% humidity) and watered twice daily. After 13 days, the test was evaluated (5=total damage to plant; 0=no damage to plant).

[2] = test system: Amaranthus retroflexus; assay: Pre-emergence herbicidal activity, AMARE; details: 1000 g/Ha, sprayed pre-emergence, evaluated after 13 days, scale 0-5
Method: as §1

[3] = test system: Setaria faberi; assay: Pre-emergence herbicidal activity, SETFA; details: 1000 g/Ha, sprayed pre-emergence, evaluated after 13 days, scale 0-5
Method: as §1

[4] = test system: Echinochloa crus-galli; assay: Pre-emergence herbicidal activity, ECHCG; details: 1000 g/Ha, sprayed pre-emergence, evaluated after 13 days, scale 0-5
Method: as §1

[5] = test system: Alopecurus myosuroides; assay: Pre-emergence herbicidal activity, ALOMY; details: 1000 g/Ha, sprayed pre-emergence, evaluated after 13 days, scale 0-5
Method: as §1

[6] = test system: Zea mays; assay: Pre-emergence herbicidal activity, ZEAMX; details: 1000 g/Ha, sprayed pre-emergence, evaluated after 13 days, scale 0-5
Method: as §1

[7] = test system: Setaria faberi; assay: Post-emergence herbicidal activity, SETFA; details: 1000 g/Ha, sprayed post-emergence (8 days cultivation), evaluated after 13 days, scale 0-5
Method: (§2) Seeds of a variety of test species were sown in standard soil in pots. After 8 days cultivation (post-emergence) under controlled conditions in a glasshouse (at 24/16° C., day/night; 14 hours light; 65% humidity), the plants were sprayed with an aqueous spray solution derived from the formulation of the technical active ingredient in acetone/water (50:50) solution containing 0.5% Tween 20 (polyoxyethelyene sorbitan monolaurate, CAS RN 9005-64-5). The test plants were then grown in a glasshouse under controlled conditions (at 24/16° C., day/night; 14 hours light; 65% humidity) and watered twice daily. After 13 days, the test was evaluated (5=total damage to plant; 0=no damage to plant).

[8] = test system: Abutilon theophrasti; assay: Post-emergence herbicidal activity, ABUTH; details: 1000 g/Ha, sprayed post-emergence (8 days cultivation), evaluated after 13 days, scale 0-5
Method: as §2

[9] = test system: Amaranthus retroflexus; assay: Post-emergence herbicidal activity, AMARE; details: 1000 g/Ha, sprayed post-emergence (8 days cultivation), evaluated after 13 days, scale 0-5
Method: as §2

[10] = test system: Alopecurus myosuroides; assay: Post-emergence herbicidal activity, ALOMY; details: 1000 g/Ha, sprayed post-emergence (8 days cultivation), evaluated after 13 days, scale 0-5
Method: as §2

[11] = test system: Echinochloa crus-galli; assay: Post-emergence herbicidal activity, ECHCG; details: 1000 g/Ha, sprayed post-emergence (8 days cultivation), evaluated after 13 days, scale 0-5
Method: as §2

[12] = test system: Zea mays; assay: Post-emergence herbicidal activity, ZEAMX; details: 1000 g/Ha, sprayed post-emergence (8 days cultivation), evaluated after 13 days, scale 0-5
Method: as §2

C=CC1C(O)N(c2cc(C(C)(C)C)ncn2)C(=O)N1C (stereo not shown) [Example A29]
ABUTH damage score, application pre-emergence [1]: 5 | AMARE damage score, application pre-emergence [2]: 5 | SETFA damage score, application pre-emergence [3]: 4 | ECHCG damage score, application pre-emergence [4]: 4 | ALOMY damage score, application pre-emergence [5]: 4 | ZEAMX damage score, application pre-emergence [6]: 1 | SETFA damage score, application post-emergence [7]: 5 | ABUTH damage score, application post-emergence [8]: 5 | AMARE damage score, application post-emergence [9]: 5 | ALOMY damage score, application post-emergence [10]: 4 | ECHCG damage score, application post-emergence [11]: 4 | ZEAMX damage score, application post-emergence [12]: 1

CCCOC1C(OCCC)N(c2cc(C(C)(C)C)ncn2)C(=O)N1C (stereo not shown) [Example A28]
ABUTH damage score, application pre-emergence [1]: 0 | AMARE damage score, application pre-emergence [2]: 0 | SETFA damage score, application pre-emergence [3]: 0 | ECHCG damage score, application pre-emergence [4]: 0 | ALOMY damage score, application pre-emergence [5]: 0 | ZEAMX damage score, application pre-emergence [6]: 0 | SETFA damage score, application post-emergence [7]: 0 | ABUTH damage score, application post-emergence [8]: 0 | AMARE damage score, application post-emergence [9]: 0 | ALOMY damage score, application post-emergence [10]: 0 | ECHCG damage score, application post-emergence [11]: 0 | ZEAMX damage score, application post-emergence [12]: 0

CC1C(O)N(c2cc(C(C)(C)C)ncn2)C(=O)N1C (stereo not shown) [Example A3]
ABUTH damage score, application pre-emergence [1]: 5 | AMARE damage score, application pre-emergence [2]: 5 | SETFA damage score, application pre-emergence [3]: 5 | ECHCG damage score, application pre-emergence [4]: 4 | ALOMY damage score, application pre-emergence [5]: 4 | ZEAMX damage score, application pre-emergence [6]: 2 | SETFA damage score, application post-emergence [7]: 5 | ABUTH damage score, application post-emergence [8]: 5 | AMARE damage score, application post-emergence [9]: 5 | ALOMY damage score, application post-emergence [10]: 5 | ECHCG damage score, application post-emergence [11]: 5 | ZEAMX damage score, application post-emergence [12]: 3

CN1CC(O)N(c2cc(C(C)(C)CCl)ncn2)C1=O (stereo not shown) [Example A40]
ABUTH damage score, application pre-emergence [1]: 5 | AMARE damage score, application pre-emergence [2]: 5 | SETFA damage score, application pre-emergence [3]: 5 | ECHCG damage score, application pre-emergence [4]: 5 | ZEAMX damage score, application pre-emergence [6]: 2 | SETFA damage score, application post-emergence [7]: 5 | ABUTH damage score, application post-emergence [8]: 5 | AMARE damage score, application post-emergence [9]: 5 | ECHCG damage score, application post-emergence [11]: 5 | ZEAMX damage score, application post-emergence [12]: 5

CCC1C(O)N(c2cc(C(C)(C)C)ncn2)C(=O)N1OC (stereo not shown) [Example A19]
ABUTH damage score, application pre-emergence [1]: 3 | AMARE damage score, application pre-emergence [2]: 5 | SETFA damage score, application pre-emergence [3]: 5 | ECHCG damage score, application pre-emergence [4]: 5 | ALOMY damage score, application pre-emergence [5]: 4 | ZEAMX damage score, application pre-emergence [6]: 3 | SETFA damage score, application post-emergence [7]: 2 | ABUTH damage score, application post-emergence [8]: 5 | AMARE damage score, application post-emergence [9]: 5 | ALOMY damage score, application post-emergence [10]: 3 | ECHCG damage score, application post-emergence [11]: 3 | ZEAMX damage score, application post-emergence [12]: 5

CON1C(=O)N(c2cc(C(C)(C)C#N)ncn2)C(O)C1C (stereo not shown) [Example A25]
ABUTH damage score, application pre-emergence [1]: 5 | AMARE damage score, application pre-emergence [2]: 5 | SETFA damage score, application pre-emergence [3]: 5 | ECHCG damage score, application pre-emergence [4]: 5 | ALOMY damage score, application pre-emergence [5]: 4 | ZEAMX damage score, application pre-emergence [6]: 4 | SETFA damage score, application post-emergence [7]: 5 | ABUTH damage score, application post-emergence [8]: 5 | AMARE damage score, application post-emergence [9]: 5 | ALOMY damage score, application post-emergence [10]: 5 | ECHCG damage score, application post-emergence [11]: 5 | ZEAMX damage score, application post-emergence [12]: 5

CCOC1C(O)N(c2cc(C(C)(C)C#N)ncn2)C(=O)N1C (stereo not shown) [Example A18]
ABUTH damage score, application pre-emergence [1]: 5 | AMARE damage score, application pre-emergence [2]: 5 | SETFA damage score, application pre-emergence [3]: 4 | ECHCG damage score, application pre-emergence [4]: 3 | ALOMY damage score, application pre-emergence [5]: 1 | ZEAMX damage score, application pre-emergence [6]: 2 | SETFA damage score, application post-emergence [7]: 5 | ABUTH damage score, application post-emergence [8]: 5 | AMARE damage score, application post-emergence [9]: 5 | ALOMY damage score, application post-emergence [10]: 4 | ECHCG damage score, application post-emergence [11]: 5 | ZEAMX damage score, application post-emergence [12]: 5

COCC1NC(=O)N(c2cc(C(C)(C)C)ncn2)C1O (stereo not shown) [Example A30]
ABUTH damage score, application pre-emergence [1]: 5 | AMARE damage score, application pre-emergence [2]: 5 | SETFA damage score, application pre-emergence [3]: 4 | ECHCG damage score, application pre-emergence [4]: 4 | ALOMY damage score, application pre-emergence [5]: 4 | ZEAMX damage score, application pre-emergence [6]: 1 | SETFA damage score, application post-emergence [7]: 4 | ABUTH damage score, application post-emergence [8]: 5 | AMARE damage score, application post-emergence [9]: 5 | ALOMY damage score, application post-emergence [10]: 4 | ECHCG damage score, application post-emergence [11]: 3 | ZEAMX damage score, application post-emergence [12]: 1

CCO[C@@H]1C(O)N(c2cc(C(C)(C)F)ncn2)C(=O)N1C (stereo partly shown) [Example A38]
ABUTH damage score, application pre-emergence [1]: 5 | AMARE damage score, application pre-emergence [2]: 5 | SETFA damage score, application pre-emergence [3]: 5 | ECHCG damage score, application pre-emergence [4]: 5 | ZEAMX damage score, application pre-emergence [6]: 2 | SETFA damage score, application post-emergence [7]: 5 | ABUTH damage score, application post-emergence [8]: 5 | AMARE damage score, application post-emergence [9]: 5 | ECHCG damage score, application post-emergence [11]: 5 | ZEAMX damage score, application post-emergence [12]: 5

CN1CC(O)N(c2cc(C(F)(F)Cl)ncn2)C1=O (stereo not shown) [Example A39]
ABUTH damage score, application pre-emergence [1]: 5 | AMARE damage score, application pre-emergence [2]: 5 | SETFA damage score, application pre-emergence [3]: 5 | ECHCG damage score, application pre-emergence [4]: 5 | ZEAMX damage score, application pre-emergence [6]: 2 | SETFA damage score, application post-emergence [7]: 5 | ABUTH damage score, application post-emergence [8]: 5 | AMARE damage score, application post-emergence [9]: 5 | ECHCG damage score, application post-emergence [11]: 5 | ZEAMX damage score, application post-emergence [12]: 5

CON1C(=O)N(c2cc(C(C)(C)C)ncn2)C(O)C1C (stereo not shown) [Example A6, 1-(6-tert-butylpyrimidin-4-yl)-5-hydroxy-3-methoxy-4-methyl-imidazolidin-2-one]
AMARE damage score, application pre-emergence [2]: 5 | SETFA damage score, application pre-emergence [3]: 5 | ECHCG damage score, application pre-emergence [4]: 5 | ALOMY damage score, application pre-emergence [5]: 4 | SETFA damage score, application post-emergence [7]: 5 | ABUTH damage score, application post-emergence [8]: 5 | AMARE damage score, application post-emergence [9]: 5 | ALOMY damage score, application post-emergence [10]: 5 | ECHCG damage score, application post-emergence [11]: 5 | ZEAMX damage score, application post-emergence [12]: 5
